US12077768B2, “Plants having increased tolerance to herbicides” (BASF AGRO B.V., priority 2013, dated 2024)
Where two headings read alike, the source gives them in different places.

Assays:
[1] = system: mutated PPO sequences (e.g. SEQ ID NOs: 1, 30, 31, 11, 37, and 117) as wildtype or with respective mutations, expressed in leaf discs; test: Herbicide tolerance of transiently transformed tobacco leaf discs expressing wildtype or mutated PPO: tolerance factors from IC50 of PSII yield inhibition versus empty vector; assay type: cell-based, Nicotiana benthamiana; details: 48 h herbicide treatment
[2] = system: empty vector-transformed leaf discs; test: PSII yield inhibition (chlorophyll fluorescence, imaging PAM) in empty vector-transformed tobacco leaf discs; assay type: cell-based; details: Nicotiana benthamiana, read-out: IC50 of PSII yield inhibition

SMILES: C#CCN1C(=O)C(F)(F)Oc2cc(F)c(-n3c(=O)n(C)c(=S)n(C)c3=O)cc21 [1,5-dimethyl-6-thioxo-3-(2,2,7-trifluoro-3-oxo-4-(prop-2-ynyl)-3,4-dihydro-2H-benzo[b][1,4]oxazin-6-yl)-1,3,5-triazinane-2,4-dione]
- Tolerance factor (IC50 of PSII yield inhibition, transformed versus empty vector-transformed leaf discs) ([1]; Bn_PPO2_A_L371E_F394M, Brassica napus, SEQ ID 117): 10
- Tolerance factor (IC50 of PSII yield inhibition, transformed versus empty vector-transformed leaf discs) ([1]; Bn_PPO2_A_L371E_F394V, Brassica napus, SEQ ID 117): 13
- Tolerance factor (IC50 of PSII yield inhibition, transformed versus empty vector-transformed leaf discs) ([1]; Bn_PPO2_A_L371Q_F394M, Brassica napus, SEQ ID 117): 10
- Tolerance factor (IC50 of PSII yield inhibition, transformed versus empty vector-transformed leaf discs) ([1]; Bn_PPO2_A_L371Q_F394V, Brassica napus, SEQ ID 117): 14
- Tolerance factor (IC50 of PSII yield inhibition, transformed versus empty vector-transformed leaf discs) ([1]; Bn_PPO2_A_R99A_F394V, Brassica napus, SEQ ID 117): 1
- Tolerance factor (IC50 of PSII yield inhibition, transformed versus empty vector-transformed leaf discs) ([1]; Bn_PPO2_A_wt, Brassica napus, SEQ ID 117): 1
- Tolerance factor (IC50 of PSII yield inhibition, transformed versus empty vector-transformed leaf discs) ([1]; Gm_PPO2_L367E_F390M, Glycine max, SEQ ID 11): 50
- Tolerance factor (IC50 of PSII yield inhibition, transformed versus empty vector-transformed leaf discs) ([1]; Gm_PPO2_L367E_F390V, Glycine max, SEQ ID 11): 15
- Tolerance factor (IC50 of PSII yield inhibition, transformed versus empty vector-transformed leaf discs) ([1]; Gm_PPO2_L367Q_F390M, Glycine max, SEQ ID 11): 14
- Tolerance factor (IC50 of PSII yield inhibition, transformed versus empty vector-transformed leaf discs) ([1]; Gm_PPO2_L367Q_F390V, Glycine max, SEQ ID 11): 26
- Tolerance factor (IC50 of PSII yield inhibition, transformed versus empty vector-transformed leaf discs) ([1]; Gm_PPO2_R98A_F390V, Glycine max, SEQ ID 11): 14
- Tolerance factor (IC50 of PSII yield inhibition, transformed versus empty vector-transformed leaf discs) ([1]; Gm_PPO2_wt, Glycine max, SEQ ID 11): 1
- Tolerance factor (IC50 of PSII yield inhibition, transformed versus empty vector-transformed leaf discs) ([1]; Os_PPO2_L374E_F397M, Oryza sativa, SEQ ID 37): 2454
- Tolerance factor (IC50 of PSII yield inhibition, transformed versus empty vector-transformed leaf discs) ([1]; Os_PPO2_L374E_F397V, Oryza sativa, SEQ ID 37): 43
- Tolerance factor (IC50 of PSII yield inhibition, transformed versus empty vector-transformed leaf discs) ([1]; Os_PPO2_L374Q_F397M, Oryza sativa, SEQ ID 37): 14
- Tolerance factor (IC50 of PSII yield inhibition, transformed versus empty vector-transformed leaf discs) ([1]; Zm_PPO2_L410E_F433M, Zea mays, SEQ ID 30, 31): 8766
- Tolerance factor (IC50 of PSII yield inhibition, transformed versus empty vector-transformed leaf discs) ([1]; Zm_PPO2_L410Q_F433M, Zea mays, SEQ ID 30, 31): 385
- Tolerance factor (IC50 of PSII yield inhibition, transformed versus empty vector-transformed leaf discs) ([1]; Zm_PPO2_L410Q_F433V, Zea mays, SEQ ID 30, 31): 15
- Tolerance factor (IC50 of PSII yield inhibition, transformed versus empty vector-transformed leaf discs) ([1]; Zm_PPO2_R130A_F433V, Zea mays, SEQ ID 30, 31): 8766
- IC50 ([2]; empty vector-transformed leaf discs, treated for 48 h): 11 nM

SMILES: CC(C)N(C)S(=O)(=O)NC(=O)c1cc(-n2c(=O)cc(C(F)(F)F)n(C)c2=O)c(F)cc1Cl [Saflufenacil, saflufenacil]
- IC50 ([2]; 48 h): 110 nM
